The record followed here is patent publication US10167299B2, “1-(3-aminopropyl) substituted cyclic amine compounds, preparation method therefor, and pharmaceutical compositions and uses thereof” (SHANGHAI INSTITUTE OF MATERIA MEDICA, CHINESE ACADEMY OF …, priority 2013, dated 2019).

One data set relates to CCR5 protein. In words: Thermal stability of protein test (CPM-assay). Format: binding. The conditions noted are these: for Tm (° C.): thermal stability of CCR5 protein with compound, CPM dye; for protein stability effect in words, versus positive control compound: conclusion from Table 2. The method in brief: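 Purified, concentrated CCR5 protein (3–5 μg) was mixed with CPM dye and held 20 min at room temperature. It was then heated from 4 to 90 °C at 1 °C/min while fluorescence (excitation 387 nm, emission 436 nm) from CPM binding to exposed free cysteines was recorded. Tm is the midpoint of the signal change.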

In the next data set the target is CCR5 (Homo sapiens (Human), UniProt P51681). The data set is described as follows: Calcium flux inhibition experiment. Format: cell-based. The conditions noted are these: for IC50: HEK293/CCR5-Gα16 cell line, calcium flux, read-out: CCR5 IC50; for calcium influx inhibition effect in words, versus positive control compounds: conclusion from Table 1.
The conditions of data set [1]: rat, in vivo.
Procedure: The administration volume was 10 mL/kg and drug was formulated with DMSO/Tween 80/physiological saline (5:5:90, v/v/v). […] 2 h after dosing, the rats ate together.
At above time points, 0.3 ml of venous blood was taken from retrobulbar venous plexus of the rat and loaded into EDTA-2K anticoagulative tube. After centrifuged at 11000 rpm for 5 mm, the plasma was separated and frozen at −20° C. in a refrigerator.
The concentration of each compound in rat plasma was determined by LC/MS/MS.
The pharmacokinetic parameters after administration were calculated by using non-compartment model of WinNonlin 5.3 software (Pharsight Corporation, USA).
The target of a further data set is CYP1A2 (Homo sapiens (Human), UniProt P05177). The data set is described as follows: CYP450 inhibition activity assay (Vivid kit) CYP1A2. Format: in vitro ADME. Conditions: CYP450 subtype (μM) 1A2 (IC50).
Another data set has as its target CYP3A4-T (Homo sapiens (Human), UniProt P08684). The data set is described as follows: CYP450 inhibition activity assay (Vivid kit) CYP3A4-T. The conditions noted are these: CYP450 subtype (μM) 3A4-T (IC50). On the procedure: (§1) VividR CYP450 Screening Kits can be used to evaluate the effects on CYP450 subtypes (CYP1A2, CYP2D6, CYP2C9, CYP2C19, CYP3A4-T and CYP3A4-M) and the substrate VividR in the kit can be metabolizd to a product which can emit strong fluorescence in an aqueous solution by specific CYP450 enzymes.
(§2) 1. The compounds to be tested and positive compound were added to corresponding wells and DMSO was added to control wells.
(§3) 2. CYP450 enzyme was added to the compounds to be tested, positive compound and DMSO control wells. The enzyme dilution was used to replace enzyme and added to DMSO wells as test background. The mixture was vibrated and mixed for 1 minute, and then incubated at room temperature for 20 minutes.
(§4) 3. NADP^+ regeneration system and the substrate were added to initiate the reaction and incubated at room temperature for 60 minutes.

The target of another data set is CYP2C9 (Homo sapiens (Human), UniProt P11712). In words: CYP450 inhibition activity assay (Vivid kit) CYP2C9. The class given is in vitro ADME. The conditions noted are these: CYP450 subtype (μM) 2C9 (IC50).
The next data set concerns the target CYP3A4-M (Homo sapiens (Human), UniProt P08684). The data set is described as follows: CYP450 inhibition activity assay (Vivid kit) CYP3A4-M. Conditions: CYP450 subtype (μM) 3A4-M (IC50). On the procedure: as §1, §2, §3, §4
The target of another data set is hERG (Homo sapiens (Human), UniProt Q12809).
The target of a further data set is CYP2C19 (Homo sapiens (Human), UniProt P33261). The data set is described as follows: CYP450 inhibition activity assay (Vivid kit) CYP2C19. Format: in vitro ADME. Conditions: CYP450 subtype (μM) 2C19 (IC50).
A further data set addresses CYP2D6 (Homo sapiens (Human), UniProt P10635). In words: CYP450 inhibition activity assay (Vivid kit) CYP2D6. The class given is in vitro ADME. The conditions noted are these: CYP450 subtype (μM) 2D6 (IC50).

Where two headings read alike, the source gives them in different places.

Sequence of CYP2C19 (P33261 whole entry): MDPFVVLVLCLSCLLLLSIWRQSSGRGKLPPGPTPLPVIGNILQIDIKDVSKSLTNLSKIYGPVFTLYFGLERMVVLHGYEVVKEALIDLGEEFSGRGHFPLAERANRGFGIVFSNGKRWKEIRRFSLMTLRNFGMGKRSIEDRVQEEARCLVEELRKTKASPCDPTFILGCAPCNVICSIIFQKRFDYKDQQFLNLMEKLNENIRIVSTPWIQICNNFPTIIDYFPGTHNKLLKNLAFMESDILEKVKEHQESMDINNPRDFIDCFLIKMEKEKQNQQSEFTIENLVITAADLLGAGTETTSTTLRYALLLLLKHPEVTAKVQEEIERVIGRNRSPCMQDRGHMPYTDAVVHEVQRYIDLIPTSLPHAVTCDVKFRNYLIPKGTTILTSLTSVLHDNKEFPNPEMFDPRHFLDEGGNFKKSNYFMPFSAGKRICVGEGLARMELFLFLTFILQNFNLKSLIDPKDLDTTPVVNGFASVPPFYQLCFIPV
Sequence of hERG (Q12809 whole entry): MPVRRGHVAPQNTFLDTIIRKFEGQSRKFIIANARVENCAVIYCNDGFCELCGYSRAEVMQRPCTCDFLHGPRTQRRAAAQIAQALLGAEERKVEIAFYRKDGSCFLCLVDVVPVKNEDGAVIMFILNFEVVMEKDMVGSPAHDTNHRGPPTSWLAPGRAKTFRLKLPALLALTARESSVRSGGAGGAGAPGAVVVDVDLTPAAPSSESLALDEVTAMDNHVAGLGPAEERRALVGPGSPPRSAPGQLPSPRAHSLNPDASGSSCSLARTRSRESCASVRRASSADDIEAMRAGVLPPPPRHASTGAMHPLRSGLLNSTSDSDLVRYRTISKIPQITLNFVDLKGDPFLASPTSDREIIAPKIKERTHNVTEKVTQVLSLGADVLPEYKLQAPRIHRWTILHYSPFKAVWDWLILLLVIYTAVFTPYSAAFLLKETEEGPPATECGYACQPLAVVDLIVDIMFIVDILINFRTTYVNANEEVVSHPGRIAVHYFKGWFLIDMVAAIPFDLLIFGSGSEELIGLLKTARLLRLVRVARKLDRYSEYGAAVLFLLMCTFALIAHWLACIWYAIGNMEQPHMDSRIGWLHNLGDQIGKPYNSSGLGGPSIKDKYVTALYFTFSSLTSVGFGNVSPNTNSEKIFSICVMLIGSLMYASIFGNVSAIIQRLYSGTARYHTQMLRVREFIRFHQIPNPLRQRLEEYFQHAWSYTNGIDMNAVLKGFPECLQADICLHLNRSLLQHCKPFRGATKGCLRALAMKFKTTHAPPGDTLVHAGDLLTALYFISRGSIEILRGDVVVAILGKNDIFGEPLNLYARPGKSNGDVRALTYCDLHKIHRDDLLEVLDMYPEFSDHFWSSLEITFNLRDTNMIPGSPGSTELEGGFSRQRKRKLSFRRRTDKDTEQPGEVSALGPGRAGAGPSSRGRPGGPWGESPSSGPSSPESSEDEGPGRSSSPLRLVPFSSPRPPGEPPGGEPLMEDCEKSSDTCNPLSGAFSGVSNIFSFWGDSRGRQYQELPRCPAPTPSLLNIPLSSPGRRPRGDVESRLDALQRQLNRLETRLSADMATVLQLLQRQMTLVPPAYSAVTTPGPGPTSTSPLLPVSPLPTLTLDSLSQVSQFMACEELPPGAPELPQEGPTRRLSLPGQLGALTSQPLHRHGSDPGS
Sequence of CYP3A4-M (P08684 whole entry): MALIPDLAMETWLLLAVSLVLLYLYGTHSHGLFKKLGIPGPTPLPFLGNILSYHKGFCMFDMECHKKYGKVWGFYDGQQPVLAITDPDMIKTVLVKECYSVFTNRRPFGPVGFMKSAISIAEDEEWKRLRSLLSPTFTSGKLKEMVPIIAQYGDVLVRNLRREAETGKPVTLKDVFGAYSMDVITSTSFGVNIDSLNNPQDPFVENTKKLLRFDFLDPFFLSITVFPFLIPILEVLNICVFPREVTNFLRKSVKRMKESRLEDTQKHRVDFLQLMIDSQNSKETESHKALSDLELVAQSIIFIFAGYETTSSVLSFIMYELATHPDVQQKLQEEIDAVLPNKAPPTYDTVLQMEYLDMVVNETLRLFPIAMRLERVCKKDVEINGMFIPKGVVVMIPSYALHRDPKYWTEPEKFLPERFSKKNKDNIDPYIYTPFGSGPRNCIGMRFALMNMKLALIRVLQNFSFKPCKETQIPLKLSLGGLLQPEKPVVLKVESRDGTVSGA
Sequence of CYP3A4-T (P08684 whole entry): as above
Sequence of CYP2C9 (P11712 whole entry): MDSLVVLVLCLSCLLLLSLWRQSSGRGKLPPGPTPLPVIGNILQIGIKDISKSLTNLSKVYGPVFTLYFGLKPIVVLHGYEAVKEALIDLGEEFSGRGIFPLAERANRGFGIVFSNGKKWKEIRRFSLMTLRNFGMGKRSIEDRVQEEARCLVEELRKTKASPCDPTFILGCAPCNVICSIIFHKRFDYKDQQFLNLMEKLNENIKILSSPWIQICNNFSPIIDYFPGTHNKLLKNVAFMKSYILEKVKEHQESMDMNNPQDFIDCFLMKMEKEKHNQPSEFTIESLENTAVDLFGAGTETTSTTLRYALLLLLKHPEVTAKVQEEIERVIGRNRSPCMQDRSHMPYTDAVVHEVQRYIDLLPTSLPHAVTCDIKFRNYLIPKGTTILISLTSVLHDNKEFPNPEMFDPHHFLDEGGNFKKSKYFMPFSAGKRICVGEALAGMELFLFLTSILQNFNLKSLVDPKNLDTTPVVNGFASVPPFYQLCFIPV
Sequence of CCR5 (P51681 whole entry): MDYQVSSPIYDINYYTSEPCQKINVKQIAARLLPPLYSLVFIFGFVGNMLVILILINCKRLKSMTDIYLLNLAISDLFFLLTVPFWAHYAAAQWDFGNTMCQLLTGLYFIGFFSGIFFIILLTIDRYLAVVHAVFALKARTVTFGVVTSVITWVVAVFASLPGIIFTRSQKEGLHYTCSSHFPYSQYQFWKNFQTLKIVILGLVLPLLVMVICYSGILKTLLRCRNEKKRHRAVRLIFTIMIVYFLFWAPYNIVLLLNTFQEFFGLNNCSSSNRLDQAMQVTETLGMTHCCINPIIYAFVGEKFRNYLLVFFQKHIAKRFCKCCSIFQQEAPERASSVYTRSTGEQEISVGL
Sequence of CYP2D6 (P10635 whole entry): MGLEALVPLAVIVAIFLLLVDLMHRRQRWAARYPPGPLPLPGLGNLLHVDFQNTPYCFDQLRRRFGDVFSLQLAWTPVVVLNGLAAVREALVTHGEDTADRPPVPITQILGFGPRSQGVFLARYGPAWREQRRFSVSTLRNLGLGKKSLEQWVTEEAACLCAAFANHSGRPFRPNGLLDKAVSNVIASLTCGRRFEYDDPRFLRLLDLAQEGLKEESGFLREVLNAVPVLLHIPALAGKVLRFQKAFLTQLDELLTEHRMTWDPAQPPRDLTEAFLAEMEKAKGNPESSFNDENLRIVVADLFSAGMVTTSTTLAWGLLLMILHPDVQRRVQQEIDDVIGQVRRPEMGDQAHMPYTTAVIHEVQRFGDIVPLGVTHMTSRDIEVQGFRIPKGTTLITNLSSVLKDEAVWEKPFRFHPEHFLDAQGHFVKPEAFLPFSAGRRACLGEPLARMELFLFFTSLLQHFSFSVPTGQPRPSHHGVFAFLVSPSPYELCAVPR
Sequence of CYP1A2 (P05177 whole entry): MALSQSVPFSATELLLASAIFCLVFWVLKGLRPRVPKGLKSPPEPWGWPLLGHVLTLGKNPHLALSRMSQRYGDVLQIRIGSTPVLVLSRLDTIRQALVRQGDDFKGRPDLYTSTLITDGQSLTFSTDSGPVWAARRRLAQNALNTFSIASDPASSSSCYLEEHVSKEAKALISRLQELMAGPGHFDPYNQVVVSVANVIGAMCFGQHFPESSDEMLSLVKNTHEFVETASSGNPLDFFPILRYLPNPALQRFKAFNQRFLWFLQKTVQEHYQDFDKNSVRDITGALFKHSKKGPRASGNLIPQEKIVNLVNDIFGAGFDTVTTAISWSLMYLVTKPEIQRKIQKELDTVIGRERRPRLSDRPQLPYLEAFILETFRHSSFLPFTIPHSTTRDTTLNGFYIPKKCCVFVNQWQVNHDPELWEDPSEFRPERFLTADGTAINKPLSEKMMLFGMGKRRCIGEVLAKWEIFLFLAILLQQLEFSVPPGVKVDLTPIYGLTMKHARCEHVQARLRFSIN
Procedure for hERG: CHO-hERG cells which have been incubated overnight were added with sample buffer and incubated for 90 minutes at room temperature in darkness.
The sample buffer was removed and assay buffer was added.
The compound is added to the cell plate and incubated for 20 minutes in darkness.
Cell plate was placed into FDSS. The fluorescence signal was recorded every second for 10 seconds. Exciting buffer was added to the cells at the 10th second and the fluorescence signal was recorded every second for 180 seconds

A word on the IC50: it is the midpoint of a concentration-inhibition curve. For `Cc1nnc(C(C)C)n1C1CC2CCC(C1)N2CC[C@H](NC(=O)C1CCC(F)(F)CC1)c1cccs1` (stereo partly drawn) [Compound 14, 4,4-difluoro-N-[(1S)-3-[exo-3-(3-isopropyl-5-methyl-4H-1,2,4-triazol-4-yl)-8-azabicyclo[3.2.1]octane-8-yl]-1-(thiophen-2-yl)propyl]cyclohexane-1-carboxamide], in the data set on CCR5 protein, the “Tm (° C.)” value was 68.10 °C. Further, at CCR5, the IC50 amounted to 0.00233 µM and the “calcium influx inhibition effect in words, versus positive control compounds” value is “better than the positive control compounds”. Also, the “CLz” value in data set [1] (male, 10 mg/kg) stood at 23.7 mL/min/kg. Also, the “AUC0-t ng/mL * h” value in [1] (male, po, 20 mg/kg) is 1108 ng·h/mL.

For `Cc1nnc(C(C)C)n1C1CC2CCC(C1)N2CC[C@H](NC(=O)C1CCCCC1)c1cccs1` (some centres unmarked) [Compound 16], the IC50 against CYP1A2 is above 25 µM; against CYP3A4-T, 21.7 µM; against CYP2C9 it was above 25 µM; at CCR5, 0.00223 µM; on CYP3A4-M it was 12.3 µM; at hERG (human) it was 3.02 µM. The IC50 against CYP2C19 is above 25 µM; against CYP2D6, 15.1 µM. Also, the “protein stability effect in words, versus positive control compound” value with CCR5 protein is listed as “comparable with the positive control compound”. For the same compound, the “Tm (° C.)” value in the data set on CCR5 protein amounted to 71.32 °C. The “calcium influx inhibition effect in words, versus positive control compounds” value at CCR5 was “better than the positive control compounds”. In addition, in [1] (male, 10 mg/kg), the “CLz” value was found to be 32.7 mL/min/kg. Moreover, in [1] (male, po, 20 mg/kg), the “AUC0-t ng/mL * h” value came to 1512.3 ng·h/mL.

With `Cc1nnc(C(C)C)n1C1CCN(CC[C@H](NC(=O)C2CCCC2)c2cccs2)CC1` [Compound 17, N-[(1S)-3-[4-(3-isopropyl-5-methyl-4H-1,2,4-triazol-4-yl)-piperidin-1-yl]-1-(thiophen-2-yl)propyl]cyclopentane-1-carboxamide], the IC50 at CYP1A2 is above 25 µM; on CYP3A4-T, above 25 µM; at CYP2C9 it was above 25 µM; at CCR5 it was 0.00255 µM; against CYP3A4-M it was above 25 µM; against CYP2C19, above 25 µM. The IC50 against CYP2D6 is above 25 µM. Besides, the “Tm (° C.)” value in the data set with CCR5 protein turned out to be 66.97 °C. The “calcium influx inhibition effect in words, versus positive control compounds” value on CCR5 was “better than the positive control compounds”.

Consider `Cc1nnc(C(C)C)n1C1CC2CCC(C1)N2CC[C@H](NC(=O)C1CCCC1)c1cccs1` (stereo partly drawn) [Compound 18, N-[(1S)-3-[exo-3-(3-isopropyl-5-methyl-4H-1,2,4-triazol-4-yl)-8-azabicyclo[3.2.1]octane-8-yl]-1-(thiophen-2-yl)propyl]cyclopentane-1-carboxamide], for which the IC50 is above 25 µM against CYP1A2; above 25 µM at CYP3A4-T; above 25 µM on CYP2C9; 0.00373 µM on CCR5; above 25 µM against CYP3A4-M; above 25 µM at CYP2C19. At CYP2D6, this compound returned an IC50 of 16.8 µM. Moreover, the “protein stability effect in words, versus positive control compound” value in the data set on CCR5 protein is “comparable with the positive control compound”. For the same compound, the “Tm (° C.)” value in the data set on CCR5 protein was 71.73 °C. Moreover, at CCR5, the “calcium influx inhibition effect in words, versus positive control compounds” value is “better than the positive control compounds”. The “CLz” value in data set [1] (male, 10 mg/kg) turned out to be 104 mL/min/kg. The “AUC0-t ng/mL * h” value in data set [1] (male, po, 20 mg/kg) came out at 2801.1 ng·h/mL.

Take `Cc1nnc(C(C)C)n1C1CC2CCC(C1)N2CC[C@H](NC(=O)C1CCC(F)(F)CC1)c1ccsc1` (stereo partly drawn) [Compound 22, 4,4-difluoro-N-[(1S)-3-[exo-3-(3-isopropyl-5-methyl-4H-1,2,4-triazol-4-yl)-8-azabicyclo[3.2.1]octane-8-yl]-1-(thiophen-3-yl)propyl]cyclohexane-1-carboxamide]: the IC50 was above 25 µM at CYP1A2; above 25 µM against CYP3A4-T; above 25 µM at CYP2C9; 0.00105 µM on CCR5; above 25 µM at CYP3A4-M; above 25 µM against CYP2C19. On CYP2D6, this compound showed an IC50 above 25 µM. For the same compound, the “Tm (° C.)” value with CCR5 protein stood at 68.21 °C. Also, the “calcium influx inhibition effect in words, versus positive control compounds” value at CCR5 is on record as “better than the positive control compounds”. The “hERG inhibition activity in words, versus positive control compounds” value at hERG was “better that those of positive control compounds”. Further, the “CLz” value in data set [1] (male, 10 mg/kg) came out at 40 mL/min/kg. Moreover, in data set [1] (male, po, 20 mg/kg), the “AUC0-t ng/mL * h” value came to 1206 ng·h/mL.

For `Cc1ccc([C@H](CCN2C3CCC2CC(n2c(C)nnc2C(C)C)C3)NC(=O)C2CCC(F)(F)CC2)s1` (stereo partly drawn) [Compound 29, 4,4-difluoro-N-[(1S)-3-[exo-3-(3-isopropyl-5-methyl-4H-1,2,4-triazol-4-yl)-8-azabicyclo[3.2.1]octane-8-yl]-1-(5-methylthiophen-2-yl)propyl]cyclohexane-1-carboxamide], the IC50 against CYP1A2 was above 25 µM; at CYP3A4-T, 23.4 µM; at CYP2C9, above 25 µM; against CYP3A4-M, 10.9 µM; on hERG, 8.44 µM; against CYP2C19, above 25 µM. Besides, the half-inhibitory concentration (IC50) against CYP2D6 was above 25 µM. Moreover, on hERG, the “hERG inhibition activity in words, versus positive control compounds” value was “better that those of positive control compounds”. For the same compound, the “AUC0-t ng/mL * h” value worked out at 2330.2 ng·h/mL in data set [1] (male, 10 mg/kg) and 1870.7 ng·h/mL in [1] (male, po, 20 mg/kg). Further, in [1] (10 mg/kg), the “CLz” value was determined as 71.5 mL/min/kg.
